Literature values, collected in patent publication US20110224245A1, “Treatment Of Neurological Disorders Using Huperzine” (President and Fellows of Harvard College, priority 2008, published 2011).

Tested on: 6 Hz seizures
Settings: established antiepileptic drugs; cited from earlier work

SMILES	efficacy in the 6 Hz psychomotor seizure model
NC(=O)N1c2ccccc2C=Cc2ccccc21 [carbamazepine]	limited efficacy
Nc1nnc(-c2cccc(Cl)c2Cl)c(N)n1 [lamotrigine]	limited efficacy
O=C1NC(=O)C(c2ccccc2)(c2ccccc2)N1 [phenyloin]	limited efficacy
CC1(C)O[C@@H]2[C@@H](CO[C@@]3(COS(N)(=O)=O)OC(C)(C)O[C@@H]23)O1 [topiramate]	limited efficacy
